What was measured:
[1] = tested on: guinea-pig ileum; assay: Increase in basal tone of resting isolated guinea-pig ileum (Magnus model); parameters: unit not given here; settings: 40 μg/l; for Contraction induced by acetylcholine, Average value: average of 6
[2] = tested on: carrageenan oedema; assay: Carrageenan oedema model of the rat (paw volume, plethysmometer); type: in vivo; settings: 4 mg/kg of body wt., 1/2 h before induction
Protocol: The carrageenan oedema model of the rat is an internationally recognised pharmacological method for uncovering clinically relevant anti-inflammatory agents.
The test substances were administered 1/2 h before induction of oedema; the control animals received the solvent (30% ethanol). The paw volume was measured with a plethysmometer before (0 value) oedema induction and 1, 2, 3, 4 and 6 hours after.
The anti-inflammatory action of the test substances was calculated according to the formula [formula] V=average value of the differences from the 0 value: drug group K=average value of the differences from the 0 value; control group

For `CC(=O)OCC[N+](C)(C)C` [Acetylch., acetylcholine], the “Contraction induced by acetylcholine (comparison for increase in basal tone)” value ([1]; Table 2 series (STW 5-II), Expt. 1) was 10.1, the “Contraction induced by acetylcholine (comparison for increase in basal tone)” value ([1]; Table 2 series (STW 5-II), Expt. 2) was 14.6 and the “Contraction induced by acetylcholine (comparison for increase in basal tone)” value ([1]; Table 2 series (STW 5-II), Expt. 3) was 11.7. The “Contraction induced by acetylcholine (comparison for increase in basal tone)” value ([1]; Table 2 series (STW 5-II), Expt. 4) was 14.0, the “Contraction induced by acetylcholine (comparison for increase in basal tone)” value ([1]; Table 2 series (STW 5-II), Expt. 5) was 12.7 and the “Contraction induced by acetylcholine (comparison for increase in basal tone)” value ([1]; Table 2 series (STW 5-II), Expt. 6) was 8.6. For the same molecule, the “Contraction induced by acetylcholine, Average value” ([1]; Table 2 series (STW 5-II)) was 11.95, the “Contraction induced by acetylcholine (comparison for increase in basal tone)” value ([1]; Table 3 series (STW 5), Expt. 1) was 11.8 and the “Contraction induced by acetylcholine (comparison for increase in basal tone)” value ([1]; Table 3 series (STW 5), Expt. 2) was 6.3. The “Contraction induced by acetylcholine (comparison for increase in basal tone)” value ([1]; Table 3 series (STW 5), Expt. 3) was 12.1, the “Contraction induced by acetylcholine (comparison for increase in basal tone)” value ([1]; Table 3 series (STW 5), Expt. 4) was 9.9 and the “Contraction induced by acetylcholine (comparison for increase in basal tone)” value ([1]; Table 3 series (STW 5), Expt. 5) was 12.2. For the same molecule, the “Contraction induced by acetylcholine (comparison for increase in basal tone)” value ([1]; Table 3 series (STW 5), Expt. 6) was 5.9 and the “Contraction induced by acetylcholine, Average value” ([1]; Table 3 series (STW 5)) was 9.70.
With `COc1ccc2c(c1)c(CC(=O)O)c(C)n2C(=O)c1ccc(Cl)cc1` [Indomethacin] the “% inhibition of carrageenan oedema” value ([2]; 1 h after oedema induction) was 24.0%, the “% inhibition of carrageenan oedema” value ([2]; 2 h after oedema induction) was 23.5% and the “% inhibition of carrageenan oedema” value ([2]; 3 h after oedema induction) was 35.0%. The “% inhibition of carrageenan oedema” value ([2]; 4 h after oedema induction) was 47.5% and the “% inhibition of carrageenan oedema” value ([2]; 6 h after oedema induction) was 61.3%.

Source: US5618537A, “Plant-based medicaments for increasing the tone and modulating the tone of the smooth muscular organ” (Steigerwald Arzneimittelwerk GmbH, priority 1991, dated 1997)
